From ChEMBL document CHEMBL4390652, “Design, biological evaluation and X-ray crystallography of nanomolar multifunctional ligands targeting simultaneously acetylcholinesterase and glycogen synthase kinase-3” (Eur J Med Chem, 2019)

How the values were obtained:
[1] = biological target: Calcium/calmodulin-dependent protein kinase type 1G (Homo sapiens) (UniProt Q96NX5); assay: Binding affinity to wild-type human partial length CAMK1G (M1 to A342 residues) expressed in bacterial expression system assessed as residual binding level at 10 uM by Kinomescan method relative to control
[2] = biological target: Serine/threonine-protein kinase 3 (Homo sapiens) (UniProt Q13188); assay: Binding affinity to wild-type human partial length MST2 (D17 to E318 residues) expressed in bacterial expression system assessed as residual binding level at 10 uM by Kinomescan method relative to control
[3] = biological target: Protein kinase C eta type (Homo sapiens) (UniProt P24723); assay: Binding affinity to wild-type human partial length PRKCH (S324 to P683 residues) expressed in bacterial expression system assessed as residual binding level at 10 uM by Kinomescan method relative to control
[4] = biological target: Dual specificity mitogen-activated protein kinase kinase 7 (Homo sapiens) (UniProt O14733); assay: Binding affinity to wild-type human full length MKK7 (M1 to R419 residues) expressed in mammalian expression system assessed as residual binding level at 10 uM by Kinomescan method relative to control
[5] = biological target: Tyrosine-protein kinase BTK (Homo sapiens) (UniProt Q06187); assay: Binding affinity to wild-type human full length BTK (M1 to S659 residues) expressed in mammalian expression system assessed as residual binding level at 10 uM by Kinomescan method relative to control
[6] = biological target: Tyrosine-protein kinase CSK (Homo sapiens) (UniProt P41240); assay: Binding affinity to wild-type human full length CSK (M1 to L450 residues) expressed in bacterial expression system assessed as residual binding level at 10 uM by Kinomescan method relative to control
[7] = biological target: Casein kinase II subunit alpha (Homo sapiens) (UniProt P68400); assay: Binding affinity to wild-type human full length CSNK2A1 (M1 to Q391 residues) expressed in mammalian expression system assessed as residual binding level at 10 uM by Kinomescan method relative to control
[8] = biological target: Casein kinase I isoform epsilon (Homo sapiens) (UniProt P49674); assay: Binding affinity to wild-type human full length CSNK1E (M1 to K416 residues) expressed in bacterial expression system assessed as residual binding level at 10 uM by Kinomescan method relative to control
[9] = biological target: Serine/threonine-protein kinase DCLK2 (Homo sapiens) (UniProt Q8N568); assay: Binding affinity to wild-type human partial length DCAMKL2 (K273 to V664 residues) expressed in bacterial expression system assessed as residual binding level at 10 uM by Kinomescan method relative to control
[10] = biological target: Ephrin type-B receptor 2 (Homo sapiens) (UniProt P29323); assay: Binding affinity to wild-type human partial length EPHB2 (I597 to L902 residues) expressed in bacterial expression system assessed as residual binding level at 10 uM by Kinomescan method relative to control
[11] = biological target: Muscle, skeletal receptor tyrosine-protein kinase (Homo sapiens) (UniProt O15146); assay: Binding affinity to wild-type human partial length MUSK (M553 to V869 residues) expressed in bacterial expression system assessed as residual binding level at 10 uM by Kinomescan method relative to control
[12] = biological target: Platelet-derived growth factor receptor beta (Homo sapiens) (UniProt P09619); assay: Binding affinity to wild-type human partial length PDGFRB (V582 to Y1009 residues) expressed in bacterial expression system assessed as residual binding level at 10 uM by Kinomescan method relative to control
[13] = biological target: Phosphatidylinositol 4,5-bisphosphate 3-kinase catalytic subunit beta isoform (Homo sapiens) (UniProt P42338); assay: Binding affinity to wild-type human partial length PIK3CB (P118 to S1070 residues) expressed in mammalian expression system assessed as residual binding level at 10 uM by Kinomescan method relative to control
[14] = biological target: Serine/threonine-protein kinase 10 (Homo sapiens) (UniProt O94804); assay: Binding affinity to wild-type human partial length LOK (E16 to V314 residues) expressed in bacterial expression system assessed as residual binding level at 10 uM by Kinomescan method relative to control
[15] = biological target: Dual specificity protein kinase CLK4 (Homo sapiens) (UniProt Q9HAZ1); assay: Binding affinity to wild-type human partial length CLK4 (R135 to K481 residues) expressed in bacterial expression system assessed as residual binding level at 10 uM by Kinomescan method relative to control
[16] = biological target: MAP kinase-interacting serine/threonine-protein kinase 2 (Homo sapiens) (UniProt Q9HBH9); assay: Binding affinity to wild-type human partial length MKNK2 (G63 to S388 residues) expressed in mammalian expression system assessed as residual binding level at 10 uM by Kinomescan method relative to control
[17] = biological target: cAMP-dependent protein kinase catalytic subunit beta (Homo sapiens) (UniProt P22694); assay: Binding affinity to wild-type human full length PKAC-beta (M1 to F351 residues) expressed in bacterial expression system assessed as residual binding level at 10 uM by Kinomescan method relative to control
[18] = biological target: Activin receptor type-1B (Homo sapiens) (UniProt P36896); assay: Binding affinity to wild-type human ACVR1B (S187 to I505 residues) expressed in bacterial expression system assessed as residual binding level at 10 uM by Kinomescan method relative to control
[19] = biological target: Mitogen-activated protein kinase kinase kinase 11 (Homo sapiens) (UniProt Q16584); assay: Binding affinity to wild-type human partial length MLK3 (I77 to W399 residues) expressed in bacterial expression system assessed as residual binding level at 10 uM by Kinomescan method relative to control
[20] = biological target: RAC-beta serine/threonine-protein kinase (Homo sapiens) (UniProt P31751); assay: Binding affinity to wild-type human partial length AKT2 expressed in bacterial expression system assessed as residual binding level at 10 uM by Kinomescan method relative to control
[21] = biological target: Serine/threonine-protein kinase WNK3 (Homo sapiens) (UniProt Q9BYP7); assay: Binding affinity to wild-type human partial length WNK3 (M1 to D434 residues) expressed in mammalian expression system assessed as residual binding level at 10 uM by Kinomescan method relative to control
[22] = biological target: Glycogen synthase kinase-3 alpha (Homo sapiens) (UniProt P49840); assay: Binding affinity to wild-type human full length GSK3A (M1 to S483 residues) expressed in bacterial expression system assessed as residual binding level at 10 uM by Kinomescan method relative to control
[23] = biological target: Ribosomal protein S6 kinase alpha-5 (Homo sapiens) (UniProt O75582); assay: Binding affinity to wild-type human partial length N-terminal RPS6KA5 kinase domain 1 expressed in bacterial expression system assessed as residual binding level at 10 uM by Kinomescan method relative to control
[24] = biological target: Cyclin-dependent kinase 19 (Homo sapiens) (UniProt Q9BWU1); assay: Binding affinity to wild-type human partial length CDK11 (M1 to N360 residues) expressed in bacterial expression system assessed as residual binding level at 10 uM by Kinomescan method relative to control
[25] = biological target: Serine/threonine-protein kinase Nek7 (Homo sapiens) (UniProt Q8TDX7); assay: Binding affinity to wild-type human full length NEK7 (M1 to S302 residues) expressed in bacterial expression system assessed as residual binding level at 10 uM by Kinomescan method relative to control

Chain of Serine/threonine-protein kinase DCLK2 (Homo sapiens) (Q8N568 whole entry, the tested form may be a part): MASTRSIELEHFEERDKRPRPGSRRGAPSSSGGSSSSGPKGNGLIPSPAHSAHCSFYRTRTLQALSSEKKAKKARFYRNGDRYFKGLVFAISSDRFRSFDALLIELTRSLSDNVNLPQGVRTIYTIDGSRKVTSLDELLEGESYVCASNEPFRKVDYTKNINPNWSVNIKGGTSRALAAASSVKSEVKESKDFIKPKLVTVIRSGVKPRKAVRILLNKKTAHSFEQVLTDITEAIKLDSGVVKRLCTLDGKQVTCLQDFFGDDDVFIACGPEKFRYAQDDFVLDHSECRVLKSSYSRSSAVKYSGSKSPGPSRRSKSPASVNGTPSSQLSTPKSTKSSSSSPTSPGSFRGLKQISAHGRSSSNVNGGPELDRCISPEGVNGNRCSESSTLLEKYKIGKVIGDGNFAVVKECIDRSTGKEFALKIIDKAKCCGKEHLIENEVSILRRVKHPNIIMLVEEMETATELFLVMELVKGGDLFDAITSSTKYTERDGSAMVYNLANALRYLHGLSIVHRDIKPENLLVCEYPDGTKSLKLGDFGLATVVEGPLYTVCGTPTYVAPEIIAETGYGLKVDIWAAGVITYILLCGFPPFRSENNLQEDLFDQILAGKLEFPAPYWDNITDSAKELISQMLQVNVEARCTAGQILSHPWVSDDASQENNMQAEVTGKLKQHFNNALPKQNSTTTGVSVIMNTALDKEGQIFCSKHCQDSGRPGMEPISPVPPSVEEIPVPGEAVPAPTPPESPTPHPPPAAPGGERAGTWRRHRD
Chain of Dual specificity mitogen-activated protein kinase kinase 7 (Homo sapiens) (O14733 whole entry, the tested form may be a part): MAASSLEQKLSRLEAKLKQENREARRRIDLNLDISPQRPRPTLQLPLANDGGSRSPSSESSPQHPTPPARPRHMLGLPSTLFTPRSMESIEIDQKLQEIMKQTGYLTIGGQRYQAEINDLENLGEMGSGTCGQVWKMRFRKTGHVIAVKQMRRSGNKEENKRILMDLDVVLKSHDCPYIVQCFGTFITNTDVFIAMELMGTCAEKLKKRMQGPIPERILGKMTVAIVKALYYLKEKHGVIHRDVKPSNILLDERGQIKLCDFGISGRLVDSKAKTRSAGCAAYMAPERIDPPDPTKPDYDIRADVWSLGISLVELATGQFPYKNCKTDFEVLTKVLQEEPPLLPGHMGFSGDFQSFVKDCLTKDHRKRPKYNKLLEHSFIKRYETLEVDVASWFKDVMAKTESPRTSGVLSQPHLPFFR
Chain of Ribosomal protein S6 kinase alpha-5 (Homo sapiens) (O75582 whole entry, looked up, the tested form may be a part): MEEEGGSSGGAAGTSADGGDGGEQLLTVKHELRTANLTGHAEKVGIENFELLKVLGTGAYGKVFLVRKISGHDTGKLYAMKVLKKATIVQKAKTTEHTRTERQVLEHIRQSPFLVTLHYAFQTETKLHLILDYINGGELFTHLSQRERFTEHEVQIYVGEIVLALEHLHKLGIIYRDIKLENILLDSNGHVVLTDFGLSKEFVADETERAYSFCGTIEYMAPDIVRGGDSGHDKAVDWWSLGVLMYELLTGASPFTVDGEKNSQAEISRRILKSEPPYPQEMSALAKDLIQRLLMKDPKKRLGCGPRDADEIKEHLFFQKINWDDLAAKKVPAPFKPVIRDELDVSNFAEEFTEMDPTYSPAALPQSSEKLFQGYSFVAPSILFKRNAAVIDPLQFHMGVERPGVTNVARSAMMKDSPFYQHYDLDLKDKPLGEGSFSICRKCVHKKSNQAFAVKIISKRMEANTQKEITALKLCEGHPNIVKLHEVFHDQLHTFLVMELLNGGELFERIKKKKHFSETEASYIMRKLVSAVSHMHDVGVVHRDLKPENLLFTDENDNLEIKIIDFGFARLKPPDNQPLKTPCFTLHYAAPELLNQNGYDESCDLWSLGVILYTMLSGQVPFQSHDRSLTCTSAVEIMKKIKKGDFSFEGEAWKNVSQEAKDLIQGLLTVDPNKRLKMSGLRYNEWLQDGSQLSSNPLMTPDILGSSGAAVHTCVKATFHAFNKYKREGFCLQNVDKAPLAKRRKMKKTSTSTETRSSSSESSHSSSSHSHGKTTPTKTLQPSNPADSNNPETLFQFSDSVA
Chain of Serine/threonine-protein kinase 10 (Homo sapiens) (O94804 whole entry, looked up, the tested form may be a part): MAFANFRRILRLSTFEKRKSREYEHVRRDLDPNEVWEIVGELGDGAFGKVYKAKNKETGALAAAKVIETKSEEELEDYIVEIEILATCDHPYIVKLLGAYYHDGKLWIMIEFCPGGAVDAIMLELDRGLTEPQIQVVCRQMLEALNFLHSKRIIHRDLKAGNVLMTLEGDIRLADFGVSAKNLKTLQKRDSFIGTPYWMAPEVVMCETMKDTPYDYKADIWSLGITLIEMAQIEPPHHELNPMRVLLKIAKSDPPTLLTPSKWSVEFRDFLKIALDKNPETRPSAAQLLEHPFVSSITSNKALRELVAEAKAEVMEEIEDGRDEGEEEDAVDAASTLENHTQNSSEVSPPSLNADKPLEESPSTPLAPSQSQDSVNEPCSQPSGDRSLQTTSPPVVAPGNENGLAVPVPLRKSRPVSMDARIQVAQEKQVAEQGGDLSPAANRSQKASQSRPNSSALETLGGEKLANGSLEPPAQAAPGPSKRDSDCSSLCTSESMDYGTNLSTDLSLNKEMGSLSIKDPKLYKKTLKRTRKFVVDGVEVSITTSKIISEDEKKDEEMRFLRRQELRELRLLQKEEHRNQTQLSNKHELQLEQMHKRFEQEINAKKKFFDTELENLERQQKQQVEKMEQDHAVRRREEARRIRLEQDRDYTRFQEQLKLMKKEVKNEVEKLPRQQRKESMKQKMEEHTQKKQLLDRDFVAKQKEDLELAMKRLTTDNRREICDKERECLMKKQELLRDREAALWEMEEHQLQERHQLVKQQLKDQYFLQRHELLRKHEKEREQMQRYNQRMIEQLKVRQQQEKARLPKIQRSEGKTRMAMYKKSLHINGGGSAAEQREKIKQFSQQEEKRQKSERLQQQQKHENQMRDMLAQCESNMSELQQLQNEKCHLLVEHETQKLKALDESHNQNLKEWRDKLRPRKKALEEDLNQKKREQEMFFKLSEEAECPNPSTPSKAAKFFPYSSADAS
Chain of Phosphatidylinositol 4,5-bisphosphate 3-kinase catalytic subunit beta isoform (Homo sapiens) (P42338 whole entry, looked up, the tested form may be a part, canonical isoform): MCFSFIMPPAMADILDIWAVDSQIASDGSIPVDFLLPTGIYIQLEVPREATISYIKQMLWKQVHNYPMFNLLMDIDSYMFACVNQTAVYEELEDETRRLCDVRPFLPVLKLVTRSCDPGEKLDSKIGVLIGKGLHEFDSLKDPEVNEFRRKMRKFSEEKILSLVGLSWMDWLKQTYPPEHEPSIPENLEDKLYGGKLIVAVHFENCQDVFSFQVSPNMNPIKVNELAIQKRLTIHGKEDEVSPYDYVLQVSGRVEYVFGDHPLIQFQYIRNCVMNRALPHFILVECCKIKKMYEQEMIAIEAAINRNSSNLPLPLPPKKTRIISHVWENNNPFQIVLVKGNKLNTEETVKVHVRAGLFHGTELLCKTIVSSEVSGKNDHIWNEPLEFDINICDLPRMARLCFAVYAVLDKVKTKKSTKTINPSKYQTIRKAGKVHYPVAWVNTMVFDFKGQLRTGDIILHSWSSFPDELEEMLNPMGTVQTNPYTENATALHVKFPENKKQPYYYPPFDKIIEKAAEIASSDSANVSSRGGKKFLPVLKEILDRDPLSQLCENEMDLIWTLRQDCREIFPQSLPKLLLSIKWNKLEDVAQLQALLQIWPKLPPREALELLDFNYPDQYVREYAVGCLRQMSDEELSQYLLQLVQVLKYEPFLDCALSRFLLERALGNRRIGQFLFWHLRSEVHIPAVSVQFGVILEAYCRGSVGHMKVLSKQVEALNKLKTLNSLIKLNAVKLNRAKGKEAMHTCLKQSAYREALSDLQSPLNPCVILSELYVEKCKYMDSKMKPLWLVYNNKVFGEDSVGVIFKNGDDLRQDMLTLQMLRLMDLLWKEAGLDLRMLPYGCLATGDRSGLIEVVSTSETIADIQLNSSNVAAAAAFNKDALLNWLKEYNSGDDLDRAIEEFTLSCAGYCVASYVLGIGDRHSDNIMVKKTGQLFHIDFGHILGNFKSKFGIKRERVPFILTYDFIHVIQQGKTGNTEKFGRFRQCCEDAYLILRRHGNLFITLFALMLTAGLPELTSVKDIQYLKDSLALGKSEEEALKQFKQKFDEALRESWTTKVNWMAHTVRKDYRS
Chain of Activin receptor type-1B (Homo sapiens) (P36896 whole entry, the tested form may be a part): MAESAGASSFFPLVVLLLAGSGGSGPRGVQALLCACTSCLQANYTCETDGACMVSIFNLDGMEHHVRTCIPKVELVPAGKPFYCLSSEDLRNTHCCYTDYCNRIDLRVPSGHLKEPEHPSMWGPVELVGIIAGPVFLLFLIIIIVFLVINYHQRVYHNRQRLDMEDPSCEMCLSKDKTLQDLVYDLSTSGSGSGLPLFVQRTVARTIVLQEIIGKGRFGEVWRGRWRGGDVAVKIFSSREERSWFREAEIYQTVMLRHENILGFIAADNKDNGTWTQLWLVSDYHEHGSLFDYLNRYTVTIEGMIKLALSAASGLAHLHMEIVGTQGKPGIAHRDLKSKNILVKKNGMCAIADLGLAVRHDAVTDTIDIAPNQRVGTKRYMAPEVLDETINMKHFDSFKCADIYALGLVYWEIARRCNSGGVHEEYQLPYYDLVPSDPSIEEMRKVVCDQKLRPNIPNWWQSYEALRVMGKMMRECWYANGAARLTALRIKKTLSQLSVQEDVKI
Chain of Casein kinase I isoform epsilon (Homo sapiens) (P49674 whole entry, looked up, the tested form may be a part, canonical isoform): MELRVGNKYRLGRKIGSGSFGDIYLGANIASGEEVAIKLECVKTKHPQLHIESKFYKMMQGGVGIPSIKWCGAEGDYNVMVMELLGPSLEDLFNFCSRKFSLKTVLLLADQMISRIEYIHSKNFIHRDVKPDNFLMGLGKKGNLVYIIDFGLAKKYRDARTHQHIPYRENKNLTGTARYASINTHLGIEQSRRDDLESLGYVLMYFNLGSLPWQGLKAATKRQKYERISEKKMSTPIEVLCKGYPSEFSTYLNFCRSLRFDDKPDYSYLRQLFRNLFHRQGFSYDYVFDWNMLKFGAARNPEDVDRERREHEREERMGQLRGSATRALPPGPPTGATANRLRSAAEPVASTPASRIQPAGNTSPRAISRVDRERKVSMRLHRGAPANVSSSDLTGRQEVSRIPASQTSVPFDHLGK

Compound O=C(Nc1cc(-c2cn(CCNc3c4c(nc5ccccc35)CCCC4)nn2)ccn1)Nc1cccc2c1C1CCCCN1C2=O (racemic) has an Activity [1] of 44%, an Activity [2] of 21% and an Activity [3] of 3.9%. The Activity [4] was 100%, the Activity [5] was 100% and the Activity [6] was 77%. For the same compound, the Activity [7] was 33%, the Activity [8] was 0.15% and the Activity [9] was 90%. The Activity [10] was 61%, the Activity [11] was 49% and the Activity [12] was 2.3%. It also gave an Activity [13] of 53%, an Activity [14] of 99% and an Activity [15] of 2.8%. It also gave an Activity [16] of 72%, an Activity [17] of 99% and an Activity [18] of 67%. The Activity [19] was 58%, the Activity [20] was 80% and the Activity [21] was 100%. It also gave an Activity [22] of 0.3%, an Activity [23] of 55% and an Activity [24] of 94%. The Activity [25] was 27%.
